Data set [1] is described as follows: log P by HPLC on reversed phase columns (Method L0).
Protocol: Measurement of log P values was performed according to EEC directive 79/831 Annex V.A8 by HPLC (High Performance Liquid Chromatography) on reversed phase columns with the following methods: • ^[a] log P value is determined by measurement of LC-UV, in an acidic range, with 0.1% formic acid in water and acetonitrile as eluent (linear gradient from 10% acetonitrile to 95% acetonitrile). • ^[b] log P value is determined by measurement of LC-UV, in a neutral range, with 0.001 molar ammonium acetate solution in water and acetonitrile as eluent (linear gradient from 10% acetonitrile to 95% acetonitrile).
Calibration was done with straight-chain alkan-2-ones (with 3 to 16 carbon atoms) with known log P values (measurement of log P values using retention times with linear interpolation between successive alkanones).
Data set [2] has as its system Nippostrongylus brasiliensis. Briefly: In vitro assay 2: Nippostrongylus brasiliensis (NIPOBR), acetylcholine esterase readout. The conditions noted are these: 1 μg/ml, read-out: activity (reduction of AChE compared to negative control). Summed up: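 Adult worms, washed in saline with antibiotics/antimycotic, were incubated in medium with compound (DMSO stock) at 10 μg/ml (10 ppm) or 1 μg/ml (1 ppm). Acetylcholine esterase activity in a medium aliquot was measured against a negative control as the anthelmintic readout.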

For data set [3], the system named is Dirofilaria immitis microfilariae. Kind of data set: In vitro assay 3: Dirofilaria immitis microfilariae (DIROIM L1), motility. The following applies: 72 h, read-out: EC50 (reduction of motility), 72 h incubation.
Data set [4] deals with Dirofilaria immitis third-stage larvae. Kind of data set: In vitro assay 4: Dirofilaria immitis (DIROIM L4), motility. The following applies: 72 h, read-out: EC50 (reduction of motility).
Another data set concerns Cooperia curticei. The conditions noted are these: Cooperia curticei, 120 h, read-out: activity (larval mortality).
The subject of another data set is Haemonchus contortus. The conditions noted are these: 120 h, read-out: activity (larval mortality).
A further data set addresses C. elegans Slo-1a (Caenorhabditis elegans, UniProt Q95V25). The conditions noted are these: pE50 (negative decadic logarithm of EC50), CHO cells expressing C. elegans Slo-1a, voltage sensitive dye.
Where [5] appears, read: acidic range, 0.1% formic acid in water / acetonitrile.
Setting [6] is: HPLC on reversed phase columns, Method L0.

pEC50: −log10 of the molar value.

As usually defined, the EC50 is the concentration at which the effect is half-maximal. As usually defined, the mortality is the share of the test organisms that died. As a reminder, the pEC50 is −log10 of the EC50, conventionally taken in molar units. Low values mean a high EC50, high ones a low EC50.

C. elegans Slo-1a, sequence (Q95V25 whole entry): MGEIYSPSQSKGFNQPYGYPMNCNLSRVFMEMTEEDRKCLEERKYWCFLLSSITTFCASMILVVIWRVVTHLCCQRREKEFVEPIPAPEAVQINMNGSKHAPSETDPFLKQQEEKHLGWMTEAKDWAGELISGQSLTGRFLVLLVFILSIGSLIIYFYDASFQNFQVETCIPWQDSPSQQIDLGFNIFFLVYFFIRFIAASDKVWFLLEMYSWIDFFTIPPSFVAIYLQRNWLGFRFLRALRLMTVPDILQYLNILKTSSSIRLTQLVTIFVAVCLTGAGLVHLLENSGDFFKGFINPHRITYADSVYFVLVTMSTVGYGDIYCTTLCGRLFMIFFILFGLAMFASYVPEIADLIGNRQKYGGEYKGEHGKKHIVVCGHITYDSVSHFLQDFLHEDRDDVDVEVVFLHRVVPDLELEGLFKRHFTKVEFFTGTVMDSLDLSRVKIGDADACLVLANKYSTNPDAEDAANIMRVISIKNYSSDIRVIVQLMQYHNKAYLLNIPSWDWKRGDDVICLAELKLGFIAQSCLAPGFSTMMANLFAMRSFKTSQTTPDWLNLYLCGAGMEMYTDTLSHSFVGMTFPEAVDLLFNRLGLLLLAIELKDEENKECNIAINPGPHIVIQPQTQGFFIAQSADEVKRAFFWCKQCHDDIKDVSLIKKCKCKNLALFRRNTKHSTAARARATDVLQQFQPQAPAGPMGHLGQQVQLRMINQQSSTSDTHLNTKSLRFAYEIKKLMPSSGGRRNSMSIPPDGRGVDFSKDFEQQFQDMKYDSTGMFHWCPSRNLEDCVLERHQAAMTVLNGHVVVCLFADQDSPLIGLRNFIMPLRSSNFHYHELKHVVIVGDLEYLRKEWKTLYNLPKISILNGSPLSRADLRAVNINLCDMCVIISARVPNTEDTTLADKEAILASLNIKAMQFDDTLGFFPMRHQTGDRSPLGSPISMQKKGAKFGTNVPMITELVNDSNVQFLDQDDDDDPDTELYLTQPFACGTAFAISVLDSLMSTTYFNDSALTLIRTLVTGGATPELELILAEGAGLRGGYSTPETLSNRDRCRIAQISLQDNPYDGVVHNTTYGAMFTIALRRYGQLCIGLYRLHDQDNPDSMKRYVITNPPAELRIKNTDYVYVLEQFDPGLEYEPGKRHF
Protocol for C. elegans Slo-1a: In Vitro Assay 1: C. elegans Slo-1a—Action at a Recombinant C. elegans Cell Line
Cells were cultured at 37° C. and 5% CO2 in MEMalpha with Gutamax I (Invitrogen, Nr.: 32571), supplemented with 10% (v/v) heat inactivated fetal bovine serum (Invitrogen, Nr.: 10500), G418 (1 mg/ml, Invitrogen, Nr.: 10131). Cells were detached using Accutase (Sigma, Nr.: A6964).
Membrane Potential Measurements
Laboratory compound testing was performed on 384-well microtiter plates (MTPs, Greiner, Nr.: 781092). 8000 cells/well were plated onto 384-well MTPs and cultured for 20 to 24 hours at 37° C. and 5% CO2. After removal of the cell culture medium, the cells were washed once with tyrode (150 mM NaCl, 0.3 mM KCl, 2 mM CaCl2, 1 mM MgCl2, 0.8 mM NaH2PO4, 5 mM Glucose, 28 mM Hepes, pH 7.4) and then loaded with the voltage sensitive dye of the Membrane Potential Assay Kit diluted in tyrode for 1 h at room temperature.
After starting the measurement of fluorescence using a FLIPR Tetra (Molecular Devices, Exc. 510-545 nm, Emm. 565-625 nm), test compounds were added followed by the addition of KCl tyrode (final assay concentration: 70 mM KCl, 2 mM CaCl2, 1 mM MgCl2, 0.8 mM NaH2PO4, 5 mM Glucose, 28 mM Hepes, pH 7.4, including the voltage sensitive dye). The measurement was completed after 7 minutes.
The data were evaluated by using the ActivityBase XLfit software (IDBS) for curve fitting and calculation of the half-maximal effective concentration (EC50) and are reported as negative decadic logarithm (pE50).
Protocol for Cooperia curticei: In Vitro Assay 6: Cooperia curticei (COOPCU L3)
Solvent: dimethyl sulfoxide
Approximately 40 nematode larvae (Cooperia curticei) are transferred into a test tube containing the compound solution.
After 5 days percentage of larval mortality is recorded. 100% efficacy means all larvae are killed; 0% efficacy means no larvae are killed.
Protocol for Haemonchus contortus: In Vitro Assay 7: Haemonchus contortus (HAEMCO L3)
Solvent: dimethyl sulfoxide
Approximately 40 larvae of the red stomach worm (Haemonchus contortus) are transferred into a test tube containing compound solution.
After 5 days the percentage of larval mortality is recorded. 100% efficacy means all larvae are killed, 0% efficacy means no larvae are killed.

Turning to `CCOC(=O)c1cnc2c(-c3cc(F)cc(F)c3F)cccc2c1N(C)C` [Example 1U-5], the “logP (Method L0)[a]” value in data set [1] (setting [5]) was 2.40.
Consider `CCOC(=O)c1cnc2c(-c3cc(Cl)cc(Cl)c3Cl)c(F)ccc2c1N(C)C` [Example 1U-8], for which the “logP (Method L0)[a]” value in data set [1] (setting [5]) was 4.57.
As for `CCOC(=O)c1cnc2c(-c3cc(F)cc(F)c3F)c(F)ccc2c1N(C)C` [Example 1U-11], in data set [1] (setting [5]), the “logP (Method L0)[a]” value is on record as 2.40.
On to `CCOC(=O)c1cnc2c(-c3cc(Cl)cc(Cl)c3)cccc2c1N1CCOCC1` [Example 1U-13], for which, in data set [1] (setting [5]), the “logP (Method L0)[a]” value is on record as 5.19.
Consider `CCOC(=O)c1cnc2c(-c3cccc(Cl)c3Cl)cccc2c1N1CCOCC1` [Example 1U-15], for which, in data set [1] (setting [5]), the “logP (Method L0)[a]” value is given as 3.90.
As to `O=C(O)c1cnc2c(-c3cccc(Cl)c3Cl)cccc2c1N1CCOCC1` [Example 1W-15], in data set [1] (setting [5]), the “logP (Method L0)[a]” value was found to be 1.86.
For the molecule `CN(C)c1c(C(=O)N[C@H]2CCOc3ccccc32)cnc2c(-c3cc(Cl)cc(Cl)c3)cccc12` [Example 8], the “logP (Method L0)[a]” value in data set [1] (setting [6]) was 2.53.
With `Nc1c(C(=O)N[C@H]2CCOc3ccccc32)cnc2c(-c3cc(Cl)cc(Cl)c3)cccc12` [Example 58], the “logP (Method L0)[a]” value in data set [1] (setting [6]) amounted to 2.11.
Same read-out and setting: then `CN(C)CCNc1c(C(=O)N[C@H]2CCc3ccccc32)cnc2c(-c3cc(Cl)cc(Cl)c3)cccc12` [Example 88], with 1.3.
For the molecule `COCCNc1c(C(=O)N[C@H]2CCc3ccccc32)cnc2c(-c3cc(Cl)cc(Cl)c3)cccc12` [Example 89], the “logP (Method L0)[a]” value in data set [1] (setting [6]) was found to be 2.2.
Take `CCN(CCOC)c1c(C(=O)N[C@H]2CCc3ccccc32)cnc2c(-c3cc(Cl)cc(Cl)c3)cccc12` [Example 90]: the “logP (Method L0)[a]” value in data set [1] (setting [6]) is 4.9.
On the same count and under the same terms, then `COC[C@@H]1CCCN1c1c(C(=O)N[C@H]2CCc3ccccc32)cnc2c(-c3cc(Cl)cc(Cl)c3)cccc12` [Example 91], with 2.9; and `COC[C@H]1CCCN1c1c(C(=O)N[C@H]2CCc3ccccc32)cnc2c(-c3cc(Cl)cc(Cl)c3)cccc12` [Example 92], with 2.9.
Turning to `O=C(N[C@H]1CCc2ccccc21)c1cnc2c(-c3cc(Cl)cc(Cl)c3)cccc2c1NCCN1CCCC1` [Example 96], in data set [1] (setting [6]), the “logP (Method L0)[a]” value is 1.4.
In the case of `O=C(N[C@H]1CCc2ccccc21)c1cnc2c(-c3cc(Cl)cc(Cl)c3)cccc2c1NCc1ccccn1` [Example 99-1], the “logP (Method L0)[a]” value in data set [1] (setting [6]) came out at 2.2.
Turning to `CCC(CO)Nc1c(C(=O)NC2CCc3ccccc32)cnc2c(-c3cc(Cl)cc(Cl)c3)cccc12` (stereo not shown) [Example 99-2], the “logP (Method L0)[a]” value in data set [1] (setting [6]) worked out at 2.1.
For `O=C(N[C@H]1CCc2ccccc21)c1cnc2c(-c3cc(Cl)cc(Cl)c3)cccc2c1NCCO` [Example 100], the “logP (Method L0)[a]” value in data set [1] (setting [6]) is listed as 1.9.
As to `O=C(N[C@H]1CCc2ccccc21)c1cnc2c(-c3cc(Cl)cc(Cl)c3)cccc2c1N1CC[C@@H](O)C1` [Example 101], the “logP (Method L0)[a]” value in data set [1] (setting [6]) amounted to 1.8.
For the molecule `CN(CC1CC1)c1c(C(=O)N[C@H]2CCc3ccccc32)cnc2c(-c3cc(Cl)cc(Cl)c3)cccc12` [Example 106], the “logP (Method L0)[a]” value in data set [1] (setting [6]) came out at 3.7.
Consider `O=C(N[C@H]1CCc2ccccc21)c1cnc2c(-c3cc(Cl)cc(Cl)c3)cccc2c1N1CCC(F)(F)C1` [Example 112], for which the “logP (Method L0)[a]” value in data set [1] (setting [6]) is recorded as 2.6.
As for `CC(=O)N1CCN(c2c(C(=O)N[C@H]3CCc4ccccc43)cnc3c(-c4cc(Cl)cc(Cl)c4)cccc23)CC1` [Example 116], the “logP (Method L0)[a]” value in data set [1] (setting [6]) worked out at 3.4.
On to `CN(C)C(=O)CCNc1c(C(=O)N[C@H]2CCc3ccccc32)cnc2c(-c3cc(Cl)cc(Cl)c3)cccc12` [Example 122], for which, in data set [1] (setting [6]), the “logP (Method L0)[a]” value is recorded as 2.
`O=C(N[C@H]1CCc2ccccc21)c1cnc2c(-c3cc(Cl)cc(Cl)c3)cccc2c1NCCn1cccn1` [Example 125]: the “logP (Method L0)[a]” value in data set [1] (setting [6]) was determined as 2.1.
`C[C@H](Nc1c(C(=O)N[C@H]2CCc3ccccc32)cnc2c(-c3cc(Cl)cc(Cl)c3)cccc12)C(N)=O` [Example 127]: the “logP (Method L0)[a]” value in data set [1] (setting [6]) was 1.9.
`COC(=O)CNc1c(C(=O)N[C@H]2CCc3ccccc32)cnc2c(-c3cc(Cl)cc(Cl)c3)cccc12` [Example 128]: in data set [1] (setting [6]), the “logP (Method L0)[a]” value amounted to 2.1.
In the case of `NC(=O)CNc1c(C(=O)N[C@H]2CCc3ccccc32)cnc2c(-c3cc(Cl)cc(Cl)c3)cccc12` [Example 129], the “logP (Method L0)[a]” value in data set [1] (setting [6]) was determined as 1.8.
For the molecule `O=C(N[C@H]1CCOc2ccccc21)c1cnc2c(-c3cc(Cl)cc(Cl)c3)cccc2c1Nc1ccncc1` [Example 136], the “logP (Method L0)[a]” value in data set [1] (setting [6]) was determined as 2.1.
Still for that read-out and setting: next, `CN(CCO)c1c(C(=O)N[C@H]2CCOc3ccccc32)cnc2c(-c3cc(Cl)cc(Cl)c3)cccc12` [Example 138]: 2.7; `COc1ccc2c(c1)[C@@H](NC(=O)c1cnc3c(-c4cc(Cl)cc(Cl)c4)cccc3c1N(C)C)CCO2` [Example 147]: 2.76; `CN(CCN1CCOCC1)c1c(C(=O)N[C@H]2CCOc3ccccc32)cnc2c(-c3cc(Cl)cc(Cl)c3)cccc12` [Example 149]: 2.2.
For the molecule `CN(C)c1c(C(=O)N[C@H]2CCOc3cc(F)ccc32)cnc2c(-c3cc(Cl)cc(Cl)c3)cccc12` [Example 152], the “logP (Method L0)[a]” value in data set [1] (setting [6]) was determined as 3.
Turning to `CCNc1c(C(=O)N[C@H]2CCOc3ccccc32)cnc2c(-c3cc(Cl)cc(Cl)c3)cccc12` [Example 153], the “logP (Method L0)[a]” value in data set [1] (setting [6]) was determined as 2.1.
As for `CC(C)(C)OC(=O)CNc1c(C(=O)N[C@H]2CCOc3ccccc32)cnc2c(-c3cc(Cl)cc(Cl)c3)cccc12` [Example 182], the “logP (Method L0)” value in data set [1] (setting [6]) is 3.3.
Regarding `CN(CC(=O)OC(C)(C)C)c1c(C(=O)N[C@H]2CCOc3ccccc32)cnc2c(-c3cc(Cl)cc(Cl)c3)cccc12` [Example 183], the “logP (Method L0)” value in data set [1] (setting [6]) is on record as 6.
For the molecule `CCCNc1c(C(=O)N[C@H]2CCOc3ccccc32)cnc2c(-c3cc(Cl)cc(Cl)c3)cccc12` [Example 184], the “logP (Method L0)” value in data set [1] (setting [6]) came to 3.
For the molecule `NCCNc1c(C(=O)N[C@H]2CCOc3ccccc32)cnc2c(-c3cc(Cl)cc(Cl)c3)cccc12` [Example 185], the “logP (Method L0)” value in data set [1] (setting [6]) is 2.
Turning to `CON(C)c1c(C(=O)N[C@H]2CCOc3ccccc32)cnc2c(-c3ccccc3Cl)cccc12` [Example 248], the “logP (Method L0)” value in data set [1] (setting [6]) stood at 3.41.
As for `CON(C)c1c(C(=O)N[C@H]2CCOc3ccccc32)cnc2c(-c3cccc(Cl)c3Cl)cccc12` [Example 249], in data set [1] (setting [6]), the “logP (Method L0)” value was determined as 3.99.
Still for that read-out and setting: next, `CON(C)c1c(C(=O)N[C@H]2CCOc3ccccc32)cnc2c(-c3cc(Cl)cc(Cl)c3)cccc12` [Example 250]: 4.87; `CN(c1c(C(=O)N[C@H]2CCOc3ccccc32)cnc2c(-c3ccccc3Cl)cccc12)C1CC1` [Example 252]: 2.23.
Turning to `CN(c1c(C(=O)N[C@H]2CCOc3ccccc32)cnc2c(-c3cccc(Cl)c3Cl)cccc12)C1CC1` [Example 253], in data set [1] (setting [6]), the “logP (Method L0)” value worked out at 2.8.
Same read-out and setting: next, `CN(c1c(C(=O)N[C@H]2CCOc3ccccc32)cnc2c(-c3cc(Cl)cc(Cl)c3)cccc12)C1CC1` [Example 254]: 3.81; `CCOP(=O)(CN(C)c1c(C(=O)N[C@H]2CCOc3ccccc32)cnc2c(-c3cc(Cl)cc(Cl)c3)cccc12)OCC` [Example 285]: 4.62.
For the molecule `O=C(N[C@H]1CCOc2ccccc21)c1cnc2c(-c3cc(Cl)cc(Cl)c3)cccc2c1N1CC2CC(C1)O2` [Example 300], the “logP (Method L0)” value in data set [1] (setting [6]) is given as 2.6.
`O=C(N[C@H]1CCOc2ccccc21)c1cnc2c(-c3cc(Cl)cc(Cl)c3)cccc2c1N1CC2COCC(C1)O2` [Example 301]: in data set [1] (setting [6]), the “logP (Method L0)” value was 3.3.
Turning to `Cn1c(=O)n(C)n(-c2c(C(=O)N[C@H]3CCOc4ccccc43)cnc3c(-c4cccc(Cl)c4Cl)cccc23)c1=O` [Example 321], the “logP (Method L0)^[a]” value in data set [1] (setting [6]) stood at 3.37.
Take `COc1ccc(-c2cc(Cl)cc(Cl)c2)c2ncc(C(=O)N[C@H]3CCOc4ccccc43)c(N(C)C)c12` [Example 504]: the inhibition at 1 µg/mL in data set [2] is above 80%. Besides, the EC50 in data set [3] and in data set [4] was below 0.1 µg/mL in each case. Further, the mortality at 4 ppm in the data set with Cooperia curticei and in the data set on Haemonchus contortus was 100% in each case. Also, the mortality at 20 ppm in the data set with Cooperia curticei and with Haemonchus contortus was 100% each time. The same molecule gave a pEC50 on C. elegans Slo-1a above 8.50.
Take `CCc1c(C(=O)N[C@H]2CCOc3ccccc32)cnc2c(-c3cc(Cl)cc(Cl)c3Cl)cccc12` [Example 573]: the inhibition at 1 µg/mL in data set [2] was above 80%. Besides, the EC50 in data set [3] and in data set [4] was below 0.1 µg/mL each time. Further, the mortality at 4 ppm in the data set with Cooperia curticei and in the data set with Haemonchus contortus was 100% in each case. The mortality at 20 ppm with Cooperia curticei and with Haemonchus contortus was 100% in each case. The pEC50 at C. elegans Slo-1a is 7.50 to 8.50.
Regarding `O=C(N[C@H]1CCOc2ccccc21)c1cnc2c(-c3cc(F)cc(F)c3F)cccc2c1C1COC1` [Example 660, N-[(4S)-3,4-dihydro-2H-chromen-4-yl]-4-(oxetan-3-yl)-8-(2,3,5-trifluorophenyl)quinoline-3-carboxamide], in data set [2], the inhibition at 1 µg/mL is above 80%. The EC50 in data set [3] and in data set [4] was below 0.1 µg/mL throughout. In addition, the mortality at 4 ppm in the data set with Cooperia curticei and in the data set on Haemonchus contortus was 100% in each case. Moreover, the mortality at 20 ppm in the data set with Cooperia curticei and in the data set with Haemonchus contortus was 100% each time. This molecule also showed a pEC50 at C. elegans Slo-1a above 8.50.
